Assay results: US20240239784A1, “INDOLE COMPOUNDS AND METHODS OF USE” (GENZYME CORPORATION, priority 2021, published 2024)

system: NBD1; test: Aggregation analysis of NBD1 thermal stability by differential static light scattering (DSLS); assay type: binding, Human; conditions: compound at 100 μM; ΔTagg versus DMSO control

SMILES	DSLS NBD1/3D Human Stability delta-T (° C.) @ 100 (μM)
CC(C(=O)O)(c1ccccc1)c1c[nH]c(-c2cc(Oc3c(F)cc4[nH]ccc4c3F)ccc2F)n1 (stereo not drawn) [Example 76, 2-(2-(5-((4,6-Difluoro-1H-indol-5-yl)oxy)-2-fluorophenyl)-1H-imidazol-4-yl)-2-phenylpropanoic acid]	B (4-8° C.)
CC(O)(c1ccccc1)c1cnc(-c2cccc(Oc3c(F)cc4[nH]ccc4c3S(C)(=O)=O)c2)[nH]1 (stereo not drawn) [Example 5, 1-(2-(3-((6-Fluoro-4-(methylsulfonyl)-1H-indol-5-yl)oxy)phenyl)-1H-imidazol-5-yl)-1-phenylethan-1-ol]	A (T ≥8° C.)
O=C(O)CC(c1cccc(-c2nnc(Cc3ccccc3)[nH]2)c1)c1ccc2[nH]ccc2c1 (stereo not drawn) [Example 37, 3-(3-(5-Benzyl-4H-1,2,4-triazol-3-yl)phenyl)-3˜(1H-indol-5-yl)propanoic acid]	C (≤4° C.)
CC(O)(c1ccccc1)c1cnc(-c2cccc(Oc3ccc4[nH]ccc4n3)c2)[nH]1 (stereo not drawn) [Example 53, 1-(2-(3-((1H-Pyrrolo[3,2-b]pyridin-5-yl)oxy)phenyl)-1H-imidazol-5-yl)-1-phenylethan-1-ol]	B (4-8° C.)
CC(C)(c1ccccc1)c1cnc(-c2cc(Oc3c(F)cc4[nH]ccc4c3CCS(N)(=O)=O)ccc2F)[nH]1 [Example 75, 2-(6-Fluoro-5-(4-fluoro-3-(5-(2-phenylpropan-2-yl)-1H-imidazol-2-yl)phenoxy)-1H-indol-4-yl)ethane-1-sulfonamide]	B (4-8° C.)
CC(O)(c1ccccc1)c1cnc(-c2cc(Oc3c(F)cc4[nH]ccc4c3CCC(=O)O)ccc2F)[nH]1 (stereo not drawn) [Example 71, 3-(6-Fluoro-5-(4-fluoro-3-(5-(1-hydroxy-1-phenylethyl)-1H-imidazol-2-yl)phenoxy)-1H-indol-4-yl)propanoic acid]	A (T ≥8° C.)
CC(O)(c1ccccc1)c1cnc(-c2cccc(Oc3c(F)cc4[nH]ccc4c3C=C3SC(=O)NC3=O)c2)[nH]1 (stereo not drawn) [Example 3, 5-((6-fluoro-5-(3-(5-(1-hydroxy-1-phenylethyl)-1H-imidazol-2-yl)phenoxy)-1H-indol-4-yl)methylene)thiazolidine-2,4-dione]	A (T ≥8° C.)
OC(c1cccc(-c2nnc(Cc3ccccc3)[nH]2)c1)c1ccc2[nH]ccc2c1 (single isomer, unassigned) [Example 35B, (3-(5-Benzyl-4H-1,2,4-triazol-3-yl)phenyl)(1H-indol-5-yl)methanol]	C (≤4° C.)
O=C(O)c1c(Oc2cccc(-c3nnc(Cc4ccccc4)[nH]3)c2)ccc2[nH]ccc12 [Example 19, 5-(3-(5-Benzyl-4H-1,2,4-triazol-3-yl)phenoxy)-1H-indole-4-carboxylic acid]	B (4-8° C.)
